Assay results published in patent publication US20060089390A1, “3-benzoyl-2,4,5-substituted pyridine derivatives or salts thereof and bactericides containing the same” (Ishihara Sangyo Kaisha, Ltd., priority 2002, published 2006).
Like-named read-outs stand apart in the source and are kept apart here.

What was measured:
rice blast = experiment: whole plant or invertebrate; format: in vivo, Rice (cultivar: Nihonbare); details: Pyricularia oryzae, foliar, read-out: controlling effects as compared with non-treated cases (number of lesions)
cucumber powdery mildew [1] = experiment: Test on rainfastness of effect against cucumber powdery mildew; format: in vivo, Cucumber (cultivar: Suyo); details: Cucumis sativus, topical, 500 gai/ha
Procedure: Cucumber (cultivar: […] A day after the treatment, 10 mm/hr of artificial rainfall was applied for 1 hour. Together with seedlings not subjected to rainfall treatment (preventive), the cucumber was sprayed and inoculated with a conidiospore suspension of fungi of powdery mildew, and the cucumber was kept in a thermostatic chamber at 20° C. From 6 to 11 days after the inoculation, the number of lesions was examined, and the controlling rate was calculated by comparison with the non-treated cases. The results are shown in Table 5.

cucumber powdery mildew [2] = experiment: Test on preventive effect against cucumber powdery mildew; format: in vivo, Cucumber (cultivar: Suyo); details: Cucumis sativus, foliar spray before inoculation, examined 6 to 11 days after inoculation, read-out: controlling effects as compared with non-treated cases (area of sporogony)
Procedure: Test on Preventive Effect Against Cucumber Powdery Mildew Cucumber (cultivar: […] After the drug solution dried, the cucumber was sprayed and inoculated with a conidiospore suspension of fungi of powdery mildew, and the cucumber was kept in a thermostatic chamber at 20° C. From 6 to 11 days after the inoculation, the area of sporogony was examined.

wheat powdery mildew = experiment: Test on preventive effect against wheat powdery mildew; format: in vivo, Wheat (cultivar: Norin-61-go); details: Triticum aestivum, foliar spray before inoculation, examined 6 to 8 days after inoculation, read-out: controlling effects as compared with non-treated cases (area of sporogony)
Procedure: Tests on Preventive Effect Against Wheat Powdery Mildew Wheat (cultivar: […] After the drug solution dried, the wheat was inoculated by spreading with conidiospore of fungi of powdery mildew, and the wheat was kept in a thermostatic chamber at 20° C. From 6 to 8 days after the inoculation, the area of sporogony was examined.

[3] = 10 mm/hr artificial rainfall for 1 hour a day after treatment, read-out: Controlling rate of cucumber powdery mildew (%) Rainfall
[4] = no rainfall treatment (preventive), read-out: Controlling rate of cucumber powdery mildew (%) Preventive

SMILES: COc1cc(C)c(C(=O)c2c(OC)ncc(C)c2Cl)c(OC)c1OC [1-24, 3-(2,3,4-trimethoxy-6-methylbenzoyl)-4-chloro-2-methoxy-5-methylpyridine]
- pest or weed control at 500 ppm (rice blast): ≥ 90%
- pest or weed control at 500 g/ha (cucumber powdery mildew [1]; [3]): 85%
- pest or weed control at 500 g/ha (cucumber powdery mildew [1]; [4]): 100%
- pest or weed control at 125 ppm (cucumber powdery mildew [2]): ≥ 90%
- pest or weed control at 125 ppm (wheat powdery mildew): ≥ 90%

SMILES: COc1cc(C)c(C(=O)c2c(OC)ncc(Br)c2C)c(OC)c1OC [1-36, 3-(2,3,4-trimethoxy-6-methylbenzoyl)-5-bromo-2-methoxy-4-methylpyridine]
- pest or weed control at 125 ppm (cucumber powdery mildew [2]): ≥ 90%
- pest or weed control at 125 ppm (wheat powdery mildew): ≥ 90%

SMILES: COc1cc(C)c(C(=O)c2c(F)ncc(C)c2I)c(OC)c1OC [1-18, 3-(2,3,4-trimethoxy-6-methylbenzoyl)-2-fluoro-4-iodo-5-methylpyridine]
- melting point: 140 to 141 °C
- pest or weed control at 125 ppm (wheat powdery mildew): ≥ 90%

SMILES: COc1cc(C)c(C(=O)c2c(OC)ncc(C)c2C(F)(F)F)c(OC)c1OC [Compound No. 1-37, 3-(2,3,4-trimethoxy-6-methylbenzoyl)-4-trifluoromethyl-2-methoxy-5-methylpyridine]
- pest or weed control at 500 g/ha (cucumber powdery mildew [1]; [3]): 100%
- pest or weed control at 500 g/ha (cucumber powdery mildew [1]; [4]): 100%
- pest or weed control at 125 ppm (cucumber powdery mildew [2]): ≥ 90%
- pest or weed control at 125 ppm (wheat powdery mildew): ≥ 90%

SMILES: CCc1c(Cl)cnc(OC)c1C(=O)c1c(C)cc(OC)c(OC)c1OC [1-2, 3-(2,3,4-trimethoxy-6-methylbenzoyl)-5-chloro-4-ethyl-2-methoxypyridine]
- pest or weed control at 500 ppm (rice blast): ≥ 90%
- pest or weed control at 125 ppm (cucumber powdery mildew [2]): ≥ 90%
- pest or weed control at 125 ppm (wheat powdery mildew): ≥ 90%

SMILES: CCOc1cc(C(=O)c2c(OC)ncc(Cl)c2Cl)c(C)cc1OC [1-4, 3-(5-ethoxy-4-methoxy-2-methylbenzoyl)-4,5-dichloro-2-methoxypyridine]
- pest or weed control at 125 ppm (cucumber powdery mildew [2]): ≥ 90%
- pest or weed control at 125 ppm (wheat powdery mildew): ≥ 90%

SMILES: CCOc1ncc(Cl)c(C)c1C(=O)c1c(C)cc(OC)c(OC)c1OC [1-6, 3-(2,3,4-trimethoxy-6-methylbenzoyl)-5-chloro-2-ethoxy-4-methylpyridine]
- pest or weed control at 125 ppm (wheat powdery mildew): ≥ 90%

SMILES: COc1cc(C)c(C(=O)c2c(OC)ncc(C)c2Br)c(OC)c1OC [1-13, 3-(2,3,4-trimethoxy-6-methylbenzoyl)-4-bromo-2-methoxy-5-methylpyridine]
- pest or weed control at 125 ppm (cucumber powdery mildew [2]): ≥ 90%
- pest or weed control at 125 ppm (wheat powdery mildew): ≥ 90%

SMILES: COc1cc(C)c(C(=O)c2c(OC)ncc(Br)c2Cl)c(OC)c1OC [1-23, 3-(2,3,4-trimethoxy-6-methylbenzoyl)-5-bromo-4-chloro-2-methoxypyridine]
- pest or weed control at 500 ppm (rice blast): ≥ 90%
- pest or weed control at 500 g/ha (cucumber powdery mildew [1]; [3]): 100%
- pest or weed control at 500 g/ha (cucumber powdery mildew [1]; [4]): 100%
- pest or weed control at 125 ppm (cucumber powdery mildew [2]): ≥ 90%
- pest or weed control at 125 ppm (wheat powdery mildew): ≥ 90%

SMILES: CCOc1ncc(Br)c(Cl)c1C(=O)c1c(C)cc(OC)c(OC)c1OC [1-7, 3-(2,3,4-trimethoxy-6-methylbenzoyl)-5-bromo-4-chloro-2-ethoxypyridine]
- pest or weed control at 125 ppm (cucumber powdery mildew [2]): ≥ 90%
- pest or weed control at 125 ppm (wheat powdery mildew): ≥ 90%

SMILES: COc1cc(C)c(C(=O)c2c(OC)cnc(Cl)c2Cl)c(OC)c1OC [2-6, 4-(2,3,4-trimethoxy-6-methylbenzoyl)-2,3-dichloro-5-methoxypyridine, reference compound]
- pest or weed control at 500 g/ha (cucumber powdery mildew [1]; [3]): 0%
- pest or weed control at 500 g/ha (cucumber powdery mildew [1]; [4]): 90%
- pest or weed control at 125 ppm (cucumber powdery mildew [2]): ≥ 90%
- pest or weed control at 125 ppm (wheat powdery mildew): ≥ 90%

SMILES: COc1cc(C)c(C(=O)c2c(OC)ncc(Cl)c2SC)c(OC)c1OC [1-10, 3-(2,3,4-trimethoxy-6-methylbenzoyl)-5-chloro-2-methoxy-4-methylthiopyridine]
- pest or weed control at 125 ppm (cucumber powdery mildew [2]): ≥ 90%
- pest or weed control at 125 ppm (wheat powdery mildew): ≥ 90%

SMILES: CCOc1ncc(C)c(C)c1C(=O)c1c(C)cc(OC)c(OC)c1OCC [1-21, 3-(2-ethoxy-3,4-dimethoxy-6-methylbenzoyl)-2-ethoxy-4,5-dimethylpyridine]
- pest or weed control at 125 ppm (cucumber powdery mildew [2]): ≥ 90%
- pest or weed control at 125 ppm (wheat powdery mildew): ≥ 90%

SMILES: COc1cc(C)c(C(=O)c2c(OC)cnc(C)c2C(F)(F)F)c(OC)c1OC [2-2, 4-(2,3,4-trimethoxy-6-methylbenzoyl)-3-trifluoromethyl-5-methoxy-2-methylpyridine, reference compound]
- pest or weed control at 500 g/ha (cucumber powdery mildew [1]; [3]): 35%
- pest or weed control at 500 g/ha (cucumber powdery mildew [1]; [4]): 100%
- pest or weed control at 125 ppm (cucumber powdery mildew [2]): ≥ 90%
- pest or weed control at 125 ppm (wheat powdery mildew): ≥ 90%

SMILES: COc1cc(C)c(C(=O)c2c(OC)cnc(Br)c2C)c(OC)c1OC [2-3, 4-(2,3,4-trimethoxy-6-methylbenzoyl)-2-bromo-5-methoxy-3-methylpyridine, reference compound]
- pest or weed control at 500 ppm (rice blast): ≥ 90%
- pest or weed control at 500 g/ha (cucumber powdery mildew [1]; [3]): 0%
- pest or weed control at 500 g/ha (cucumber powdery mildew [1]; [4]): 100%
- pest or weed control at 125 ppm (cucumber powdery mildew [2]): ≥ 90%
- pest or weed control at 125 ppm (wheat powdery mildew): ≥ 90%

SMILES: COc1cc(C)c(C(=O)c2c(Cl)ncc(I)c2Cl)c(OC)c1OC [1-17, 3-(2,3,4-trimethoxy-6-methylbenzoyl)-2,4-dichloro-5-iodopyridine]
- pest or weed control at 500 ppm (rice blast): ≥ 90%
- pest or weed control at 125 ppm (wheat powdery mildew): ≥ 90%

SMILES: COc1cc(C)c(C(=O)c2c(OC)ncc(Cl)c2C)c(OC)c1OC [Compound No. 1-35, 3-(2,3,4-trimethoxy-6-methylbenzoyl)-5-chloro-2-methoxy-4-methylpyridine]
- pest or weed control at 500 ppm (rice blast): ≥ 90%
- pest or weed control at 500 g/ha (cucumber powdery mildew [1]; [3]): 100%
- pest or weed control at 500 g/ha (cucumber powdery mildew [1]; [4]): 100%
- pest or weed control at 125 ppm (cucumber powdery mildew [2]): ≥ 90%
- pest or weed control at 125 ppm (wheat powdery mildew): ≥ 90%

SMILES: COc1cc(C)c(C(=O)c2c(OC)ncc(Br)c2Br)c(OC)c1OC [1-12, 3-(2,3,4-trimethoxy-6-methylbenzoyl)-4,5-dibromo-2-methoxypyridine]
- pest or weed control at 500 g/ha (cucumber powdery mildew [1]; [3]): 68%
- pest or weed control at 500 g/ha (cucumber powdery mildew [1]; [4]): 100%
- pest or weed control at 125 ppm (cucumber powdery mildew [2]): ≥ 90%
- pest or weed control at 125 ppm (wheat powdery mildew): ≥ 90%

SMILES: COc1cc(C)c(C(=O)c2c(OC)cnc(C)c2Cl)c(OC)c1OC [2-4, 4-(2,3,4-trimethoxy-6-methylbenzoyl)-3-chloro-5-methoxy-2-methylpyridine, reference compound]
- pest or weed control at 500 g/ha (cucumber powdery mildew [1]; [3]): 35%
- pest or weed control at 500 g/ha (cucumber powdery mildew [1]; [4]): 92.5%
- pest or weed control at 125 ppm (wheat powdery mildew): ≥ 90%

SMILES: COc1cc(C)c(C(=O)c2c(OC)ncc(Br)c2C(F)(F)F)c(OC)c1OC [1-14, 3-(2,3,4-trimethoxy-6-methylbenzoyl)-5-bromo-4-trifluoromethyl-2-methoxypyridine]
- pest or weed control at 500 g/ha (cucumber powdery mildew [1]; [3]): 100%
- pest or weed control at 500 g/ha (cucumber powdery mildew [1]; [4]): 100%
- pest or weed control at 125 ppm (cucumber powdery mildew [2]): ≥ 90%
- pest or weed control at 125 ppm (wheat powdery mildew): ≥ 90%

SMILES: COc1cc(C)c(C(=O)c2c(OC)ccnc2OC)c(OC)c1OC [2-5, 3-(2,3,4-trimethoxy-6-methylbenzoyl)-2,4-dimethoxypyridine, reference compound]
- pest or weed control at 500 g/ha (cucumber powdery mildew [1]; [3]): 0%
- pest or weed control at 500 g/ha (cucumber powdery mildew [1]; [4]): 95%
- pest or weed control at 125 ppm (wheat powdery mildew): ≥ 90%

SMILES: CCOc1ncc(Cl)c(Br)c1C(=O)c1c(C)cc(OC)c(OC)c1OC [1-5, 3-(2,3,4-trimethoxy-6-methylbenzoyl)-4-bromo-5-chloro-2-ethoxypyridine]
- pest or weed control at 125 ppm (cucumber powdery mildew [2]): ≥ 90%
- pest or weed control at 125 ppm (wheat powdery mildew): ≥ 90%

SMILES: COc1cc(C)c(C(=O)c2c(OC)cnc(Cl)c2C)c(OC)c1OC [2-1, 4-(2,3,4-trimethoxy-6-methylbenzoyl)-2-chloro-5-methoxy-3-methylpyridine, reference compound]
- pest or weed control at 500 g/ha (cucumber powdery mildew [1]; [3]): 0%
- pest or weed control at 500 g/ha (cucumber powdery mildew [1]; [4]): 100%
- pest or weed control at 125 ppm (cucumber powdery mildew [2]): ≥ 90%
- pest or weed control at 125 ppm (wheat powdery mildew): ≥ 90%

SMILES: COc1cc(C)c(C(=O)c2c(SC)ncc(C)c2C)c(OC)c1OC [1-22, 3-(2,3,4-trimethoxy-6-methylbenzoyl)-4,5-dimethyl-2-methylthiopyridine]
- pest or weed control at 500 ppm (rice blast): ≥ 90%
- pest or weed control at 125 ppm (cucumber powdery mildew [2]): ≥ 90%
- pest or weed control at 125 ppm (wheat powdery mildew): ≥ 90%
